The values below are quoted from earlier work in patent US20160101079A1 (priority 2014, published 2016).

Molecules are shown by their SMILES.

Data set [1] relates to glycoprotein shedding (Ebola virus GP; TACE).
A further data set deals with rotaviruses. The note with it: 10 mM.
The subject of data set [2] is Human Foreskin (HF) cells infected with HSV-2-strain G. The note with it: 3 to 1.5 mM.

For the compound `CNC(=O)[C@H](Cc1c[nH]c2ccccc12)NC(=O)[C@@H](CC(=O)NO)CC(C)C` [GM6001], the “concentration at which inhibition of GP shedding was observed” value (from here on “concentration at which inhibition”) in data set [1] was 5 mM.

With `O=C(O)CN(CCN(CC(=O)O)CC(=O)O)CC(=O)O` [EDTA, ethylenediaminetetraacetic acid], the “effect on rotavirus particles” value with rotaviruses is recorded as “single-shelled, double-layered, non-infectious viral particles”.

`O=C(O)c1ccccn1` [picolinic acid]: the “effect on HSV-2 infected HF cells” value in data set [2] is “cause apoptosis of HF infected cells”.

Take `CNC(=O)[C@@H](NC(=O)[C@H](CC(C)C)[C@H](O)C(=O)NO)C(C)(C)C` [BB2516]: the “concentration at which inhibition” value in data set [1] is 0.5 mM.

As for `COc1ccc(S(=O)(=O)N2Cc3ccccc3C[C@@H]2C(=O)NO)cc1` [MMP-8 inhibitor I], the “concentration at which inhibition” value in data set [1] is given as 5 mM.
